Results as given in patent US5629347A, “Aromatic compounds, pharmaceutical compositions containing them and their use in therapy” (Merck Sharp & Dohme Ltd., priority 1991, dated 1997).
Counter-ions that a name gives are not always drawn.

Target: human NK1R (Homo sapiens, UniProt P25103)
Assay: biochemical
Assay type: binding
Conditions: displacement of 125I-substance P; human NK1R in COS or CHO cells
Experimental: To express the cloned human neurokinin-1-receotor (NK1R) transiently in COS, the cDNA for the human NK1R was cloned into the expression vector pCDM9 which was derived from pCDM8 (INVITROGEN) by inserting the ampicillin resistance gene (nucleotide 1973 to 2964 from BLUESCRIPT SK+ (trademark, […], La Jolla, Calif., U.S.A.)) into the Sac II site. Transfection of 20 ug of the plasmid DNA into 10 million COS cells was achieved by electroporation in 800 μl of transfection buffer (135 mM NaCl, 1.2 mM CaCl2, 1.2 mM MgCl2, 2.4 mM K2 HPO4, 0.6 mM KH2 PO4, 10 mM glucose, 10 mM N-2-hydroxyethyl-piperazine-N'-2-ethane sulphonic acid (HEPES) pH 7.4) at 260 V and 950 μF using the IBI GENEZAPPER (trademark IBI, New Haven, Conn., U.S.A.). The cells were incubated in 10% fetal calf serum, 2 mM glutamine, 100 U/ml penicillin-streptomycin, and 90% DMEM media (GIBCO, Grand Island, N.Y., U.S.A.) in 5% CO2 at 37° C. for three days before the binding assay.
To establish a stable cell line expressing cloned human NK1R, the cDNA was subcloned into the vector pRcCMV (INVITROGEN). Transfection of 20 ug of the plasmid DNA into CHO cells was achieved by electroporation in 800 μl of transfection buffer supplemented with 0.625 mg/ml Herring sperm DNA at 300 V and 950 μF using the IBI GENEZAPPER (IBI). The transfected cells were incubated. in CHO media [10% fetal calf serum, 100 U/ml penicillin-streptomycin, 2 mM glutamine, 1/500 hypoxanthinethymidine (ATCC), 90% IMDM media (JRH BIOSCIENCES, Lenexa, Kans., U.S.A.), 0.7 mg/ml G418 (GIBCO)] in 5% CO2 at 37° C. until colonies were visible. Each colony was separated and propagated. The cell clone with the highest number of human NK1R was selected for subsequent applications such as drug screening.
The binding assay of human NK1R expressed in either COS or CHO cells is based on the use of ^125 I-substance P (^125 I-SP, from DU PONT, Boston, Mass.) as a radioactively labeled ligand which competes with unlabeled substance P or any other ligand for binding to the human NK1R. […] The tubes were incubated at 4° C. or at room temperature for 1 hour with gentle shaking. The bound radioactivity was separated from unbound radioactivity by GF/C filter (BRANDEL, Gaithersburg, Md.) which was prewetted with 0.1% polyethylenimine. The filter was washed with 3 ml of wash buffer (50 mM Tris pH 7.5, 5 mM MnCl2, 150 mM NaCl) three times and its radioactivity was determined by gamma counter.

Chain of human NK1R (P25103 whole entry): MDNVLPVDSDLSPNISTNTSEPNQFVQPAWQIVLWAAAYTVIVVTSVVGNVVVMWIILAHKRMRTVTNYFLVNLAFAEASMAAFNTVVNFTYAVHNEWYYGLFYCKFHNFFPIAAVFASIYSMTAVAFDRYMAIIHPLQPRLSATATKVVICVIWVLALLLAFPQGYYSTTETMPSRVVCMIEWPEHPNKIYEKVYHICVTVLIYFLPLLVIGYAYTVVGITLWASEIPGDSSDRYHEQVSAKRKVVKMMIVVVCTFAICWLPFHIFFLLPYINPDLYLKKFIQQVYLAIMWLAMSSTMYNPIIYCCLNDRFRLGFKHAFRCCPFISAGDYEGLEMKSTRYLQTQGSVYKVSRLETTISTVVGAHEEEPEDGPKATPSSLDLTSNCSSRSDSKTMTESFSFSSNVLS

## CN(C)C(=O)CNC(COCc1cc(C(F)(F)F)cc(C(F)(F)F)c1)C(c1ccccc1)c1ccccc1 (stereo not shown) [Example 48, N-(1-((3',5'-Bis(trifluoromethyl)phenyl)methyloxy)-3,3-diphenylprop-2-yl)glycine dimethylamide hydrochloride salt]
  IC50: 0.01 µM

## CN(C)C(=O)CN(C)C(COCc1cc(C(F)(F)F)cc(C(F)(F)F)c1)C(c1ccccc1)c1ccccc1 (stereo not shown) [Example 49, N-(1-((3',5'-Bis(trifluoromethyl)phenyl)methyloxy)-3,3-diphenylprop-2-yl)-N-methylglycine dimethylamide oxalate salt]
  IC50: 0.015 µM

## O=C(CNC(COCc1cc(C(F)(F)F)cc(C(F)(F)F)c1)C(c1ccccc1)c1ccccc1)NCCO (stereo not shown) [Example 50, N-(1-((3',5'-Bis(trifluoromethyl)phenyl)methyloxy)-3,3-diphenylprop-2-yl)glycine 2-hydroxyethylamide]
  IC50: 0.001 µM

## COCCNC(=O)CNC(COCc1cc(C(F)(F)F)cc(C(F)(F)F)c1)C(c1ccccc1)c1ccccc1 (stereo not shown) [Example 51, N-(1-((3',5'-Bis(trifluoromethyl)phenyl)methyloxy)-3,3-diphenylprop-2-yl)glycine 2-methoxyethylamide]
  IC50: 0.001 µM

## CN(C)CCNC(=O)CNC(COCc1cc(C(F)(F)F)cc(C(F)(F)F)c1)C(c1ccccc1)c1ccccc1 (stereo not shown) [Example 52, N-(1-((3',5'-Bis(trifluoromethyl)phenyl)methyloxy)-3,3-diphenylprop-2-yl)glycine N',N'-dimethylethylamide bis oxalate salt]
  IC50: 0.001 µM

## CNC(=O)CN(C)C(COCc1cc(C(F)(F)F)cc(C(F)(F)F)c1)C(c1ccccc1)c1ccccc1 (stereo not shown) [Example 54, 1-((3,5-Bis(trifluoromethyl)phenyl)methyloxy)-2-((N-((methylcarboxamido)methyl)-N-methyl)amino)-3,3-diphenylpropane monohydrate]
  IC50: 0.002 µM

## Cc1cc(C)cc(COC[C@H](C(c2ccccc2)c2ccccc2)N(C)C)c1 [Example 55, (S)-2-Dimethylammonium-1-((3,5-dimethylphenyl)methyloxy)-3,3-diphenylpropane Oxalate salt]
  IC50: 0.002 µM

## Cc1cc(C)cc(COC[C@@H](C(c2ccccc2)c2ccccc2)N(C)C)c1 [Example 56, (R)-2-Dimethylammonium-1-((3,5-dimethylphenyl)methyloxy)-3,3-diphenylpropane tosylate salt]
  IC50: 0.018 µM

## NC(=O)CN[C@H](COCc1cc(C(F)(F)F)cc(C(F)(F)F)c1)C(c1ccccc1)c1ccccc1 [Example 57, (S)-1-((3',5'-Bis(trifluoromethyl)phenyl)methyloxy)-2-(((carboxamido)methyl)ammonium)-3,3-diphenylpropane oxalate salt]
  IC50: 0.0008 µM

## O=C(CCl)NC(COCc1cc(C(F)(F)F)cc(C(F)(F)F)c1)C(c1ccccc1)c1ccccc1 (stereo not shown) [Example 60]
  IC50: 0.08 µM

## NCC(=O)NC(COCc1cc(C(F)(F)F)cc(C(F)(F)F)c1)C(c1ccccc1)c1ccccc1 (stereo not shown) [Example 61, 2-(2-Ammoniumacetamido)-1-((3,5-bis(trifluoromethyl)phenyl)methyloxy)-3,3-diphenylpropane oxalate salt hemihydrate]
  IC50: 0.03 µM

## CN(C)CC(=O)NC(COCc1cc(C(F)(F)F)cc(C(F)(F)F)c1)C(c1ccccc1)c1ccccc1 (stereo not shown) [Example 62, 2-(2-(Dimethylamino)acetamido)-1-((3,5-bis(trifluoromethyl)phenyl)methyloxy)-3,3-diphenylpropane]
  IC50: 0.2 µM

## O=C1CCC(C(=O)NC(COCc2cc(C(F)(F)F)cc(C(F)(F)F)c2)C(c2ccccc2)c2ccccc2)N1 (stereo not shown) [Example 63, 1-((3,5-Bis(trifluoromethyl)phenyl)methyloxy)-3,3-diphenyl-2-(pyroglutamylamido)propane]
  IC50: 0.03 µM

## COC(=O)CCNC(COCc1cc(C(F)(F)F)cc(C(F)(F)F)c1)C(c1ccccc1)c1ccccc1 (stereo not shown) [Example 65, 1-((3,5-Bis(trifluoromethyl)phenyl)methyloxy)-2-(2-(carbomethoxy)ethylamino)-3,3-diphenylpropane]
  IC50: 0.035 µM

## O=C1CN(C(COCc2cc(C(F)(F)F)cc(C(F)(F)F)c2)C(c2ccccc2)c2ccccc2)CCN1 (stereo not shown) [Example 66, 4-((1-((3,5-Bis(trifluoromethyl)phenyl)methyloxy)-3,3-diphenyl)prop-2-yl)piperazinium-2-one hemi oxalate salt]
  IC50: 0.004 µM

## NC(C(=O)NCc1cc(C(F)(F)F)cc(C(F)(F)F)c1)C(c1ccccc1)c1ccccc1 (stereo not shown) [Example 67, 2-Amino-3,3-diphenyl-N-((3,5-bis(trifluoromethyl)phenyl)methyl)propionamide]
  IC50: 0.22 µM

## Cc1cc(CNCC(N)C(c2ccccc2)c2ccccc2)cc(C(F)(F)F)c1 (stereo not shown) [Example 68, 2-Ammonium-3,3-diphenyl-1-((3-methyl, 5-trifluoromethyl)phenyl)methylamino)propane oxalate salt]
  IC50: 0.4 µM

## CS(=O)(=O)NC(COCc1cc(C(F)(F)F)cc(C(F)(F)F)c1)C(c1ccccc1)c1ccccc1 (stereo not shown) [Example 69, 1-((3,5-Bis(trifluoromethyl)phenyl)methyloxy)-3,3-diphenyl-2-methylsulphonamidopropane]
  IC50: 0.035 µM

## CN(CC(N)=O)C(COCc1cc(C(F)(F)F)cc(C(F)(F)F)c1)C(c1ccccc1)c1ccccc1 (stereo not shown) [Example 72, 1-((3,5-Bis(trifluoromethyl)phenyl)methyloxy)-2-(N-((carboxamido)methyl)-N-methyl)ammonium-3,3-diphenylpropane oxalate salt]
  IC50: 0.007 µM
